25 molecules from US9676757B2, “Heterocyclic compounds as NaV channel inhibitors and uses thereof” (Merck Patent GmbH, priority 2014, dated 2017) can be followed below.

Structures can show the parent of a compound that is named as a salt. Where two headings read alike, the source gives them in different places.

In this assay the target is Nav1.6 (Homo sapiens, UniProt Q9UQD0). In words: Nav two-pulse protocol, IonWorks Quattro electrophysiology. The format is cell-based. The conditions noted are these: -120 mV to 0 mV, compound incubated 300 s. On the procedure: Compound Plate Preparation
Sequence of Nav1.6 (Q9UQD0 whole entry): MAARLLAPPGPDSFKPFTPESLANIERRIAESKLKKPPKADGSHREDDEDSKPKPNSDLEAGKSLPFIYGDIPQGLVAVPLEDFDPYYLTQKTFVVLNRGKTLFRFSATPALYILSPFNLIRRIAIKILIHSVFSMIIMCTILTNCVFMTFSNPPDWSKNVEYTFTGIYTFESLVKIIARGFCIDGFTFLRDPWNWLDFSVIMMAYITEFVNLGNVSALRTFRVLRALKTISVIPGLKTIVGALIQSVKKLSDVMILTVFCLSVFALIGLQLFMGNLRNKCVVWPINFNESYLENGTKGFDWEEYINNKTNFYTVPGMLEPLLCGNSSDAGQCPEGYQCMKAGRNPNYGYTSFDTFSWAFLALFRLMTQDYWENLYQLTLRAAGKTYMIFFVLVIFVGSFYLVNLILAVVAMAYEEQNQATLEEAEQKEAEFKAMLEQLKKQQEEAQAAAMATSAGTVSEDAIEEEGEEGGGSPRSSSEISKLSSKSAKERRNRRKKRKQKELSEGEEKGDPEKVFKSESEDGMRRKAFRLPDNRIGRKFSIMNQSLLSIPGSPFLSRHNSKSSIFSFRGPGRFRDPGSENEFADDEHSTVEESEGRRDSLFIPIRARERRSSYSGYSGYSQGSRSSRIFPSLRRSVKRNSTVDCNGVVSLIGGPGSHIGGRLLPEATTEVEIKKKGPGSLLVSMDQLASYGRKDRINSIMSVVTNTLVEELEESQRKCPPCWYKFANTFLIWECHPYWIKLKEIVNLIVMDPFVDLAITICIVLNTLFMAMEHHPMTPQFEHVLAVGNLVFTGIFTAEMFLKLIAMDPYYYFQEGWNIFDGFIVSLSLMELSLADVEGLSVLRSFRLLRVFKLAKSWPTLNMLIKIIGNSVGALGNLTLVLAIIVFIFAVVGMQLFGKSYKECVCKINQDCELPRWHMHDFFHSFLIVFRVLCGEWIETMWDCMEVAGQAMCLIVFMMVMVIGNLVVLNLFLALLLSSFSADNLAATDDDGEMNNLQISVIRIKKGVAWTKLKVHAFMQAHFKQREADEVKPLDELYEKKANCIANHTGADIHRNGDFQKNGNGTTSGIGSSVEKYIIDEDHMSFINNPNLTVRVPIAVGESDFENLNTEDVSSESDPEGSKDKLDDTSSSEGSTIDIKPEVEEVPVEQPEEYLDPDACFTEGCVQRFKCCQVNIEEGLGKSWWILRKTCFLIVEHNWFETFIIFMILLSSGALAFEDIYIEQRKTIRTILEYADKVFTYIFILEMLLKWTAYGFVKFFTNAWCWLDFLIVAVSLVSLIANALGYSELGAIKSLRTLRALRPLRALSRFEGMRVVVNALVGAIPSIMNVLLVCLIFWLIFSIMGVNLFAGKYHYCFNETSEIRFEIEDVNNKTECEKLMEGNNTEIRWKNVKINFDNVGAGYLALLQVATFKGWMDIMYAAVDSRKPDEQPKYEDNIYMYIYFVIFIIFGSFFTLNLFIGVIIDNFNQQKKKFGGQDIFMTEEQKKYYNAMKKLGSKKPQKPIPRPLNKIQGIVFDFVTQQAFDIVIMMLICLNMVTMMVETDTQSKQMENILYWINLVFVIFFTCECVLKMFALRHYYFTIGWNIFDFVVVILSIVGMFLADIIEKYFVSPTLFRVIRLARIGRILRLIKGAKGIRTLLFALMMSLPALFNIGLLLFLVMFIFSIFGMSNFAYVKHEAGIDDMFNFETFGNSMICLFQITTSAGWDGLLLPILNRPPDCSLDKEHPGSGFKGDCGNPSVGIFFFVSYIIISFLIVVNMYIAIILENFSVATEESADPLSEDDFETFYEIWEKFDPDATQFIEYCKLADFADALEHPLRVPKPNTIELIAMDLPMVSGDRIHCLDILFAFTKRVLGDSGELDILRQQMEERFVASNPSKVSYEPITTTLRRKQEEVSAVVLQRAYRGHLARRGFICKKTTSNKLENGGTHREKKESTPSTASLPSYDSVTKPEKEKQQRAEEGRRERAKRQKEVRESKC
Supplied compounds were sent as Assay Ready Plates, with 2 μL per well of compound in DMSO at 300× the final assay concentrations as described above and in the project proposal. All assay plates are stored at in a −80° C. freezer.
On the day of the assay, 198 μL of external solution was added to the appropriate assay plate and mixed thoroughly. This provided a 1:100 dilution. A further 1:3 dilution occurred upon addition to the cells in the IonWorks, giving a 1:300 dilution in total.
On each assay plate, at least 8 wells were reserved for vehicle control (0.3% DMSO) and at least 8 wells for each positive control specific to the cell line tested. The positive controls were tested in an 8-point dose response with 3-fold dilutions to determine an IC50 value for each run. The positive control compounds are outlined below.
Ion Channel Positive Control & Concentrations
Nav1.6/1.2 Lidocaine: 8, 3-fold dilutions starting at 100 μM
Electrophysiological Recording Solutions
The solutions for recording currents were are follows:
Amphotericin B was used to obtain electrical access to the cell interior at a final concentration of 200 μg/ml in internal recording solution.
Experimental Protocols & Data Analysis
Nav currents were evoked by stepping from a holding potential of −120 mV to 0 mV for 2.5 s (pulse 1), followed by a 5 ms inter-pulse interval, and stepping from a holding potential of −120 mV to 0 mV for 20 ms (pulse 2). The voltage protocol was applied (Pre), compounds added, incubated for 300 seconds, and the voltage protocol was applied a final time (Post) on the IonWorks Quattro.
The parameters measured were the maximum inward current evoked on stepping to 0 mV from the 1st and 2nd pulse. All data were filtered for seal quality, seal drop, and current amplitude. The peak current amplitude (Peak) was calculated before (Pre) and after (Post) compound addition to the amount of block was assessed by dividing the Post-compound current amplitude by the Pre-compound current amplitude. These procedures were implemented for the 1st and 2nd pulse.
(In general: In patch-clamp work, channel activity is measured electrically.)

As for `COc1ccccc1Oc1cccc(CN2CCC(C(=O)NCc3ccccn3)C2)c1` (stereo not shown) [Compound 7, 1-[3-(2-Methoxy-phenoxy)-benzyl]-pyrrolidine-3-carboxylic acid (pyridin-2-ylmethyl)-amide], the IC50 runs as follows: (read-out: Nav1.6 Tonic) above 20 µM; (read-out: Nav1.6 inac) below 1 µM.

As to `Cc1cccnc1CNC(=O)C1CCN(Cc2cccc(OCC(F)(F)F)c2)C1` (stereo not shown) [Compound 90, 1-[3-(2,2,2-Trifluoro-ethoxy)-benzyl]-pyrrolidine-3-carboxylic acid (3-methyl-pyridin-2-ylmethyl)-amide], the IC50 runs as follows: (read-out: Nav1.6 Tonic) above 20 µM; (read-out: Nav1.6 inac) 1 to 5 µM.

`O=C(NCc1ccc(Cl)cc1)C1CCN(Cc2cccc(Oc3ccccc3)c2)C1` (stereo not shown) [Compound 68, 1-(3-Phenoxy-benzyl)-pyrrolidine-3-carboxylic acid 4-chloro-benzylamide]: the IC50 runs as follows: (read-out: Nav1.6 Tonic) 10 to 20 µM; (read-out: Nav1.6 inac) 1 to 5 µM.

For `CC(C)COc1cccc(CN2CCC(n3cc(-c4cccc(Br)n4)nn3)C2)c1` (stereo not shown) [Compound 63, 2-Bromo-6-{1-[1-(3-isobutoxy-benzyl)-pyrrolidin-3-yl]-1H-[1,2,3]triazol-4-yl}-pyridine], the IC50 was above 20 µM (read-out: Nav1.6 Tonic) and above 5 µM (read-out: Nav1.6 inac).

As for `Cc1cc(C)cc(Oc2cccc(CN3CCC(C(=O)NCc4ccccn4)C3)c2)c1` (stereo not drawn) [Compound 9, l-[3-(3,5-Dimethyl-phenoxy)-benzyl]-pyrrolidine-3-carboxylic acid (pyridin-2-ylmethyl)-amide], the IC50 was above 20 µM (read-out: Nav1.6 Tonic) and below 1 µM (read-out: Nav1.6 inac).

In the case of `CC(C)COc1cccc(CN2CCC(COCc3ccccn3)C2)c1` (stereo not shown) [Compound 35, 2-[1-(3-Isobutoxy-benzyl)-pyrrolidin-3-ylmethoxymethyl]-pyridine], the IC50 was above 20 µM (read-out: Nav1.6 Tonic) and 1 to 5 µM (read-out: Nav1.6 inac).

Take `O=C(NCc1ccccn1)C1CCN(Cc2cccc(Oc3cccnc3)c2)C1` (stereo not shown) [Compound 12, 1-[3-(Pyridin-3-yloxy)-benzyl]-pyrrolidine-3-carboxylic acid (pyridin-2-ylmethyl)-amide]: the IC50 by setting is: (read-out: Nav1.6 Tonic) above 20 µM; (read-out: Nav1.6 inac) 1 to 5 µM.

Take `Cc1cccnc1-c1nc(C2CCN(Cc3cccc(OCC(C)C)c3)C2)no1` (stereo not shown) [Compound 51, 2-{3-[1-(3-Isobutoxy-benzyl)-pyrrolidin-3-yl]-[1,2,4]oxadiazol-5-yl}-3-methyl-pyridine]: the IC50 (read-out: Nav1.6 Tonic) was above 20 µM and the IC50 (read-out: Nav1.6 inac) is 1 to 5 µM.

Take `Cc1cccc(Oc2cccc(CN3CCC(C)(C(=O)NCc4ccccn4)C3)c2)c1` (stereo not shown) [Compound 45, 3-Methyl-1-(3-m-tolyloxy-benzyl)-pyrrolidine-3-carboxylic acid (pyridin-2-ylmethyl)-amide]: the IC50 reads like this: (read-out: Nav1.6 Tonic) above 20 µM; (read-out: Nav1.6 inac) above 5 µM.

For the molecule `CC(C)CS(=O)(=O)c1cccc(CN2CCC(C(=O)OCc3ccccn3)C2)c1` (stereo not shown) [Compound 47, 1-[3-(2-Methyl-propane-1-sulfonyl)-benzyl]-pyrrolidine-3-carboxylic acid pyridin-2-ylmethyl ester], the IC50 reads like this: (read-out: Nav1.6 Tonic) above 20 µM; (read-out: Nav1.6 inac) 1 to 5 µM.

For the molecule `COc1cccnc1-c1nc(C2CCN(Cc3cccc(OCC(C)C)c3)C2)no1` (stereo not shown) [Compound 49, 2-{3-[1-(3-Isobutoxy-benzyl)-pyrrolidin-3-yl]-[1,2,4]oxadiazol-5-yl}-3-methoxy-pyridine], the IC50 was above 20 µM (read-out: Nav1.6 Tonic) and 1 to 5 µM (read-out: Nav1.6 inac).

With `O=C(NCc1ccccn1)C1CCN(Cc2cccc(Oc3ccc(F)cc3F)c2)C1` (stereo not shown) [Compound 8, 1-[3-(2,4-Difluoro-phenoxy)-benzyl]-pyrrolidine-3-carboxylic acid (pyridin-2-ylmethyl)-amide], the IC50 (read-out: Nav1.6 Tonic) is above 20 µM and the IC50 (read-out: Nav1.6 inac) was below 1 µM.

Take `O=C(NCc1cccc(F)c1)C1CCN(Cc2cccc(Oc3ccccc3)c2)C1` (stereo not shown) [Compound 74, 1-(3-Phenoxy-benzyl)-pyrrolidine-3-carboxylic acid 3-fluoro-benzylamide]: the IC50 (read-out: Nav1.6 Tonic) fell in the range of 10 to 20 µM and the IC50 (read-out: Nav1.6 inac) lay in the range of 1 to 5 µM.

In the case of `O=C(NCc1ccc(OC(F)F)cc1)C1CCN(Cc2cccc(Oc3ccccc3)c2)C1` (stereo not shown) [Compound 96, 1-(3-Phenoxy-benzyl)-pyrrolidine-3-carboxylic acid 4-difluoromethoxy-benzylamide], the IC50 reads like this: (read-out: Nav1.6 Tonic) above 20 µM; (read-out: Nav1.6 inac) above 5 µM.

For `CC(C)COc1cccc(CN2CCC(c3noc(-c4ncccc4F)n3)C2)c1` (stereo not shown) [Compound 50, 3-Fluoro-2-{3-[1-(3-isobutoxy-benzyl)-pyrrolidin-3-yl]-[1,2,4]oxadiazol-5-yl}-pyridine], the IC50 is, setting by setting: (read-out: Nav1.6 Tonic) above 20 µM; (read-out: Nav1.6 inac) above 5 µM.

Take `CC1(C(=O)N2Cc3ccncc3C2)CCN(Cc2cccc(Oc3ccccc3)c2)C1` (stereo not shown) [Compound 108, (1,3-Dihydro-pyrrolo[3,4-c]pyridin-2-yl)-[3-methyl-1-(3-phenoxy-benzyl)-pyrrolidin-3-yl]-methanone]: the IC50 runs as follows: (read-out: Nav1.6 Tonic) above 20 µM; (read-out: Nav1.6 inac) 1 to 5 µM.

For `CC(C)COc1cccc(CN2CCC(Cn3ccnc3)C2)c1` (stereo not shown) [Compound 28, 1-[1-(3-Isobutoxy-benzyl)-pyrrolidin-3-ylmethyl]-1H-imidazole], the IC50 is above 20 µM (read-out: Nav1.6 Tonic) and below 1 µM (read-out: Nav1.6 inac).

Take `Cc1cc(C)nc(CNC(=O)C2CCN(Cc3cccc(S(=O)(=O)N4CCCC4)c3)C2)c1` (stereo not shown) [Compound 111, 1-[3-(Pyrrolidine-1-sulfonyl)-benzyl]-pyrrolidine-3-carboxylic acid (4,6-dimethyl-pyridin-2-ylmethyl)-amide hydrochloride]: the IC50 by setting is: (read-out: Nav1.6 Tonic) above 20 µM; (read-out: Nav1.6 inac) 1 to 5 µM.

For `O=C(NCc1c(F)cccc1F)C1CCN(Cc2cccc(Oc3ccccc3)c2)C1` (stereo not shown) [Compound 79, 1-(3-Phenoxy-benzyl)-pyrrolidine-3-carboxylic acid 2,6-difluoro-benzylamide], the IC50 was 10 to 20 µM (read-out: Nav1.6 Tonic) and below 1 µM (read-out: Nav1.6 inac).

Consider `CC(C)CSc1cccc(CN2CCC(C(=O)OCc3ccccn3)C2)c1` (stereo not shown) [Compound 46, 1-(3-Isobutylsulfanyl-benzyl)-pyrrolidine-3-carboxylic acid pyridin-2-ylmethyl ester], for which the IC50 (read-out: Nav1.6 Tonic) is above 20 µM and the IC50 (read-out: Nav1.6 inac) was in the range of 1 to 5 µM.

For `O=C(NCc1cc(F)cc(F)c1)C1CCN(Cc2cccc(Oc3ccccc3)c2)C1` (stereo not shown) [Compound 76, 1-(3-Phenoxy-benzyl)-pyrrolidine-3-carboxylic acid 3,5-difluoro-benzylamide], the IC50 was 10 to 20 µM (read-out: Nav1.6 Tonic) and below 1 µM (read-out: Nav1.6 inac).

For the molecule `O=C(NCc1ccc(F)cc1)C1CCN(Cc2cccc(Oc3ccccc3)c2)C1` (stereo not shown) [Compound 75, 1-(3-Phenoxy-benzyl)-pyrrolidine-3-carboxylic acid 4-fluoro-benzylamide], the IC50 is, setting by setting: (read-out: Nav1.6 Tonic) 10 to 20 µM; (read-out: Nav1.6 inac) 1 to 5 µM.

With `CC(C)COc1cccc(CN2CCC(c3nnc(CO)o3)C2)c1` (stereo not shown) [Compound 64, {5-[1-(3-Isobutoxy-benzyl)-pyrrolidin-3-yl]-[1,3,4]oxadiazol-2-yl}-methanol], the IC50 is, setting by setting: (read-out: Nav1.6 Tonic) above 20 µM; (read-out: Nav1.6 inac) 1 to 5 µM.

As for `O=C(NCCc1c[nH]cn1)C1CCN(Cc2cccc(Oc3ccccc3)c2)C1` (stereo not shown) [Compound 86, 1-(3-Phenoxy-benzyl)-pyrrolidine-3-carboxylic acid [2-(1H-imidazol-4-yl)-ethyl]-amide], where the note is “read-out: Nav1.6 inac”, the IC50 was above 5 µM.

Take `O=C(NCc1ccccn1)C1(F)CCN(Cc2cccc(Oc3cccc(C(F)(F)F)c3)c2)C1` (stereo not shown) [Compound 25, 3-Fluoro-1-[3-(3-trifluoromethyl-phenoxy)-benzyl]-pyrrolidine-3-carboxylic acid (pyridin-2-ylmethyl)-amide]: the IC50 is above 20 µM (read-out: Nav1.6 Tonic) and 1 to 5 µM (read-out: Nav1.6 inac).
